pIC50: −log10 of the molar value. Read-outs that look alike come from different tables or passages of the source.

We go through 23 compounds from patent publication US8865894B2, “Oxazolidin-2-one compounds and uses thereof” (Novartis AG, priority 2012, dated 2014).

The assay concerns the target T1, human PI3Kbeta p110 catalytic subunit (Rat-1 pBABEpuro Myr-HA-hp110 beta) (Homo sapiens, UniProt P42338).
T1 construct: Myr (myristoylation signal) (N); HA (N); expressed in transfected cells; host or cells: Rat-1
In words: Cellular assay PI3Kbeta (p-Akt(S473) SureFire, Rat-1_PI3beta cells). The assay is classed as cell-based. The source says:
AlphaScreen (Amplified Luminescent Proximity Homogeneous Assay, ALPHA, Perkin Elmer) is a non-radioactive bead-based proximity assay technology to study biomolecular interactions in a homogenous microtiter plate format. The brand name SureFire denotes AlphaScreen assays that are adapted to quantify the phosphorylation of endogenous cellular proteins in cell lysates, by using matched antibody pairs, which consist of an anti-phospho-kinase and an anti-kinase antibody. The assay allows characterization of kinase signaling in cells as well as measurement of kinase inhibitor effects. The AlphaScreen technology provides several advantages over standard assay techniques such as ELISA, as it avoids time-consuming washing procedures and reduces plate handling. Furthermore, it is miniaturizable at least to a 384-well format and provides sensitivity down to the femtomolar range, dependent on the affinity of the antibodies included in the individual AlphaScreen SureFire assay kit. High sensitivity is reached by an intrinsic amplification mechanism, which involves production of singlet oxygen molecules. SureFire assay kits are commercially available for specific targets and include pairs of validated antibodies (PerkinElmer). This report describes common procedures applied for AlphaScreen SureFire assays and respective semi-automated steps for routine kinase inhibitor profiling in cell-based assays.
The Rat-1 cell lines stably overexpressing activated PI3K class I isoforms Rat-1 pBABEpuro Myr-HA-hp110 delta (Rat-1_PI3Kdelta) and Rat-1 pBABEpuro Myr-HA-hp110alpha (Rat-1_PI3Kalpha) and Rat-1 pBABEpuro Myr-HA-hp110 beta (Rat-1_PI3beta) were prepared as described (Maira S M, Stauffer F, Brueggen J, Furet P, Schnell C, Fritsch C, Brachmann S, Chène P, de Pover A, Schoemaker K, Fabbro D, Gabriel D, Simonen M, Murphy L, Finan P, Sellers W, García-Echeverría C (2008), Mol Cancer Ther. 7:1851-63 and Maira S M, Pecchi S, Brueggen J, Huh K, Schnell C, Fritsch C, Nagel T, Wiesmann M, Brachmann S, Dorsch M, Chène P, Schoemaker K, De Pover A, Menezes D, Fabbro D, Sellers W, García-Echeverría C, Voliva C F (2011), Mol. Cancer Ther., accepted). All cell lines were cultivated in complete growth medium (DMEM high glucose, 10% (v/v) fetal bovine serum, 1% (v/v) MEM NEAA, 10 mM HEPES, 2 mM L-glutamine, puromycin (10 μg/mL for Rat-1_PI3Kdelta and Rat-1_PI3Kalpha, 4 ug/mL for Rat-1_PI3beta), 1% (v/v) Pen/Strep) to 90% confluency at 37° C./5% CO2/90% humidity in a humidified CO2 incubator and were split twice a week.
The following materials were used for p-AKT(S473) detection in Rat-1 cell lysates: Dulbecco's modified Eagle's medium (DMEM) high glucose (Gibco Invitrogen, Basel, Switzerland, Cat. No. 41965), Heat Inactivated Fetal Bovine Serum, Qualified (HI FBS; Gibco Invitrogen, Basel, Switzerland, Lot. No. 16140), MEM non essential amino acids (NEAA; Gibco Invitrogen, Basel, Switzerland, Cat. No. 11140), HEPES (Gibco Invitrogen, Basel, Switzerland, Cat. No. 15630), Penicillin/Streptomycin (Pen/Strep, 100×; Gibco Invitrogen, Basel, Switzerland, Cat. No. 15140-122), L-Glutamine (Gibco Invitrogen, Basel, Switzerland, Cat. No. 25030), Puromycin (Sigma Aldrich, Buchs, Switzerland, Cat. No. P9620), DMSO (MERCK, Dietikon, Switzerland, Cat. No. 8.02912.2500), H2O, MilliQ-H2O unless otherwise stated (MILLIPORE QGARDOOR1, Millipore, Zug, Switzerland), Bovine serum albumine (BSA; Sigma Aldrich, Buchs, Switzerland Cat. No. A8412), SureFire p-Akt 1/2 (Ser473) Assay Kit (PerkinElmer, Schwerzenbach, Switzerland, Cat. No. TGRAS50K).
The p-Akt(S473) SureFire assay measures the phosphorylation of endogenous cellular Akt 1/2 at Ser473 in cell lysates. Using Rat-1 cells stably expressing myr-HA-tagged versions of the human PI3Kdelta, PI3Kalpha, or PI3Kbeta p110 catalytic subunit isoforms, the assay was developed as a two-plate protocol in a 384-well format.

[1] abbreviates: p-Akt(S473), 1 h compound treatment, read-out: Rat1-PI3Kb/ IC50.

T1 sequence (P42338 whole entry): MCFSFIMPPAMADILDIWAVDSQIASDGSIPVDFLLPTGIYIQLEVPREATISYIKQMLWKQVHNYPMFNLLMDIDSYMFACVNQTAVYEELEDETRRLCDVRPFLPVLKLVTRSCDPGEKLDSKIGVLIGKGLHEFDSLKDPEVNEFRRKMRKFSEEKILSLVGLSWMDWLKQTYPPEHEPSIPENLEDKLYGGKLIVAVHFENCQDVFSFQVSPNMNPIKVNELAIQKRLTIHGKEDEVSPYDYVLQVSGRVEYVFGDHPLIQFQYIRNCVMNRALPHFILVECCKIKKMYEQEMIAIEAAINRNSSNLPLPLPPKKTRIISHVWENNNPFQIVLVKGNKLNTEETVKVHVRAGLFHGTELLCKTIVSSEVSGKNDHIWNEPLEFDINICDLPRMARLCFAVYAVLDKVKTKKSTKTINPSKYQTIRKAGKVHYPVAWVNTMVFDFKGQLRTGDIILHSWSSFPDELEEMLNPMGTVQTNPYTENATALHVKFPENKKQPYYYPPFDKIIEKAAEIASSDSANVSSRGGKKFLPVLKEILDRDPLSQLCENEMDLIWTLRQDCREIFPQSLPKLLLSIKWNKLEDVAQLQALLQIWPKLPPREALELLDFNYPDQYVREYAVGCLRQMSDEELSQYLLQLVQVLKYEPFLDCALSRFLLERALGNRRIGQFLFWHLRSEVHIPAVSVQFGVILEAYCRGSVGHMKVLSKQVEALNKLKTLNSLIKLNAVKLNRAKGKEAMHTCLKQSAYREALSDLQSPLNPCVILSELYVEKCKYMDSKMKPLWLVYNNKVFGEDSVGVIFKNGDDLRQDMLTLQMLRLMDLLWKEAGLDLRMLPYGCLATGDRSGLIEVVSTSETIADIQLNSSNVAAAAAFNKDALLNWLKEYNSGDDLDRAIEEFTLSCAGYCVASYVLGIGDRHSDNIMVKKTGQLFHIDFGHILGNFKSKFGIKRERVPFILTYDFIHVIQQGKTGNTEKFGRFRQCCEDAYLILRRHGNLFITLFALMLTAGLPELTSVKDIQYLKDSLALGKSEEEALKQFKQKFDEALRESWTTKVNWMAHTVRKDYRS
T1 sequence (Q63787 whole entry partner): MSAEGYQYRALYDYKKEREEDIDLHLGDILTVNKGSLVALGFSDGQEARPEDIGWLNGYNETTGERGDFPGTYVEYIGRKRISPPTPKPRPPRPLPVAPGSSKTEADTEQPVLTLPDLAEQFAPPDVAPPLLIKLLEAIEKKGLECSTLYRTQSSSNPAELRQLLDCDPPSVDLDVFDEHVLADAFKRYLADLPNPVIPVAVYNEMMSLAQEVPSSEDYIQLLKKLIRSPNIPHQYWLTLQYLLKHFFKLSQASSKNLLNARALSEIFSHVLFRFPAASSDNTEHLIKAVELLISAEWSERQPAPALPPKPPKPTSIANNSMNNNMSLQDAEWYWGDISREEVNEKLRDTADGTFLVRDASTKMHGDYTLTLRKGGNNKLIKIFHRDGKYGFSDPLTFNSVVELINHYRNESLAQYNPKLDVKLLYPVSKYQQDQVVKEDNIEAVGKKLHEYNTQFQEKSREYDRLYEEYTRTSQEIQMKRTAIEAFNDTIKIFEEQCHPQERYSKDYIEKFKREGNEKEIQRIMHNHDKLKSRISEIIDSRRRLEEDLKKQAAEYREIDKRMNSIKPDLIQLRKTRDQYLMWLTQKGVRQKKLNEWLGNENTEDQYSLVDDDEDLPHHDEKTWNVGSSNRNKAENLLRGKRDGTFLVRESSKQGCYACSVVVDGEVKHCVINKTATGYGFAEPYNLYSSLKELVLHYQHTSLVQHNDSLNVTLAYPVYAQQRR

For `C[C@H]1C(CC(C)(C)O)OC(=O)N1c1cc(-c2cnc(N)nc2C(F)(F)F)nc(N2CCOCC2)n1` (mixture of isomers) [Example 26, (4S,5R)- and (4S,5S)-3-(2′-amino-2-morpholino-4′-(trifluoromethyl)-[4,5′-bipyrimidin]-6-yl)-5-(2-hydroxy-2-methylpropyl)-4-methyloxazolidin-2-one], under setting [1], the pIC50 was 7.12.
For `CC1(CO)COC(=O)N1c1cc(-c2cnc(N)nc2C(F)(F)F)nc(N2CCOCC2)n1` (racemic) [Example 3, 3-(2′-amino-2-morpholino-4′-(trifluoromethyl)-4,5′-bipyrimidin-6-yl)-4-(hydroxymethyl)-4-methyloxazolidin-2-one], under setting [1], the pIC50 is 6.71.
Consider `Nc1ncc(-c2cc(N3C(=O)O[C@@H]4[C@@H](O)CC[C@@H]43)nc(N3CCOCC3)n2)c(C(F)(F)F)n1` (racemic) [Example 22, (3aR*,6R*,6aR*)-3-(2′-Amino-2-morpholino-4′-(trifluoromethyl)-[4,5′-bipyrimidin]-6-yl)-6-hydroxyhexahydro-2H-cyclopenta[d]oxazol-2-one], for which the pIC50 under setting [1] is 7.11.
The same measure, in the same setting: the result for `Nc1ncc(-c2cc(N3C(=O)OC4C(O)CCC43)nc(N3CCOCC3)n2)c(C(F)(F)F)n1` (single isomer, unassigned) [Example 22A] reads 7.22; that for `Nc1ncc(-c2cc(N3C(=O)OC4C(O)CCC43)nc(N3CCOCC3)n2)c(C(F)(F)F)n1` (single isomer, unassigned) [Example 22B], 6.90; that for `C[C@@H](O)C[C@H]1OC(=O)N(c2cc(-c3cnc(N)nc3C(F)(F)F)nc(N3CCOCC3)n2)[C@H]1C` (single isomer, unassigned) [Example 24], 7.47.
As to `C[C@H](O)CC1OC(=O)N(c2cc(-c3cnc(N)nc3C(F)(F)F)nc(N3CCOCC3)n2)[C@H]1C` (single isomer, unassigned) [Example 25], the pIC50 under setting [1] was 7.37.
With `C[C@H]1COC(=O)N1c1cc(-c2cnc(N)nc2C(F)(F)F)nc(N2CCOCC2)n1` [Example 1, (S)-3-(2′-Amino-2-morpholin-4-yl-4′-trifluoromethyl-[4,5′]bipyrimidinyl-6-yl)-4-methyl-oxazolidin-2-one], the pIC50 (fourth measurement, outlier, read-out: Rat1-PI3Kb IC50, fourth measurement (footnote)) was 5.41 and the pIC50 under setting [1] is 7.19.
As for `CC1(C)OC(=O)N(c2cc(-c3cnc(N)nc3C(F)(F)F)nc(N3CCOCC3)n2)[C@H]1CO` [Example 2, (S)-3-(2′-Amino-2-morpholin-4-yl-4′-trifluoromethyl-[4,5′]bipyrimidinyl-6-yl)-4-hydroxymethyl-5,5-dimethyl-oxazolidin-2-one], under setting [1], the pIC50 is 6.56.
On the same count and under the same terms, with `Nc1ncc(-c2cc(N3C(=O)O[C@H]4CCCC[C@@H]43)nc(N3CCOCC3)n2)c(C(F)(F)F)n1` [Example 4, (3aS,7aS)-3-(2′-Amino-2-morpholin-4-yl-4′-trifluoromethyl-[4,5′]bipyrimidinyl-6-yl)-hexahydro-benzooxazol-2-one] the figure was 6.74; with `COC[C@H]1COC(=O)N1c1cc(-c2cnc(N)nc2C(F)(F)F)nc(N2CCOCC2)n1` [Example 5, (S)-3-(2′-Amino-2-morpholin-4-yl-4′-trifluoromethyl-[4,5′]bipyrimidinyl-6-yl)-4-methoxymethyl-oxazolidin-2-one], 6.50; with `C[C@@H]1OC(=O)N(c2cc(-c3cnc(N)nc3C(F)(F)F)nc(N3CCOCC3)n2)[C@H]1CO` [Example 6], 6.83.
With `[2H]C1([2H])OC([2H])([2H])C([2H])([2H])N(c2nc(-c3cnc(N)nc3C(F)(F)F)cc(N3C(=O)O[C@H](C)[C@@H]3CO)n2)C1([2H])[2H]` [Example 8], the pIC50 under setting [1] was 6.97.
Consider `Nc1ncc(-c2cc(N3C(=O)OC[C@@H]3CCO)nc(N3CCOCC3)n2)c(C(F)(F)F)n1` [Example 9, (S)-3-(2′-Amino-2-morpholin-4-yl-4′-trifluoromethyl-[4,5′]bipyrimidinyl-6-yl)-4-(2-hydroxy-ethyl)-oxazolidin-2-one], for which the pIC50 under setting [1] was 6.65.
On the same count and under the same terms, the result for `C[C@H]1OC(=O)N(c2cc(-c3cnc(N)nc3C(F)(F)F)nc(N3CCOC[C@@H]3C)n2)[C@H]1CO` [Example 10, (4S,5R)-3-[2′-Amino-2-((S)-3-methyl-morpholin-4-yl)-4′-trifluoromethyl-[4,5′]bipyrimidinyl-6-yl]-4-hydroxymethyl-5-methyl-oxazolidin-2-one] reads 6.76.
Regarding `Nc1ncc(-c2cc(N3CCOC3=O)nc(N3CCOCC3)n2)c(C(F)(F)F)n1` [Example 11, 3-(2′-Amino-2-morpholin-4-yl-4′-trifluoromethyl-[4,5′]bipyrimidinyl-6-yl)-oxazolidin-2-one, reference compound], the pIC50 under setting [1] was 6.74.
Regarding `C[C@H]1OC(=O)N(c2cc(-c3cnc(N)nc3C(F)(F)F)nc(N3CCOCC3)n2)[C@H]1COC=O` [Example 12, Formic acid (4S,5R)-3-(2′-amino-2-morpholin-4-yl-4′-trifluoromethyl-[4,5′]bipyrimidinyl-6-yl)-5-methyl-2-oxo-oxazolidin-4-ylmethyl ester], under setting [1], the pIC50 was 6.91.
Same read-out and setting: with `C[C@H]1COCCN1c1nc(-c2cnc(N)nc2C(F)(F)F)cc(N2C(=O)OC[C@@H]2C)n1` [Example 13, (S)-3-[2′-Amino-2-((S)-3-methyl-morpholin-4-yl)-4′-trifluoromethyl-[4,5′]bipyrimidinyl-6-yl]-4-methyl-oxazolidin-2-one] the figure was 6.62.
Turning to `Nc1ncc(-c2cc(N3C[C@@H](CO)OC3=O)nc(N3CCOCC3)n2)c(C(F)(F)F)n1` [Example 14, (S)-3-(2′-Amino-2-morpholin-4-yl-4′-trifluoromethyl-[4,5′]bipyrimidinyl-6-yl)-5-hydroxymethyl-oxazolidin-2-one], under setting [1], the pIC50 is 6.80.
`C[C@H]1[C@H](CO)OC(=O)N1c1cc(-c2cnc(N)nc2C(F)(F)F)nc(N2CCOCC2)n1` [Example 15, (4S,5R)-3-(2′-Amino-2-morpholin-4-yl-4′-trifluoromethyl-[4,5′]bipyrimidinyl-6-yl)-5-hydroxymethyl-4-methyl-oxazolidin-2-one]: the pIC50 under setting [1] was 6.94.
On to `C[C@H]1CN(c2cc(-c3cnc(N)nc3C(F)(F)F)nc(N3CCOCC3)n2)C(=O)O1` [Example 16, (S)-3-(2′-Amino-2-morpholin-4-yl-4′-trifluoromethyl-[4,5′]bipyrimidinyl-6-yl)-5-methyl-oxazolidin-2-one], for which, under setting [1], the pIC50 was 6.80.
Consider `[2H]C1([2H])OC([2H])([2H])C([2H])([2H])N(c2nc(-c3cnc(N)nc3C(F)(F)F)cc(N3C(=O)OC[C@@H]3C)n2)C1([2H])[2H]` [Example 17, (S)-3-(2′-amino-2-D8-morpholino-4′-(trifluoromethyl)-[4,5′-bipyrimidin]-6-yl)-4-methyloxazolidin-2-one], for which, under setting [1], the pIC50 was 6.77.
In the case of `C[C@H]1OC(=O)N(c2cc(-c3cnc(N)nc3C(F)(F)F)nc(N3CCOCC3)n2)[C@H]1CO` [Example 18, (4S,5R)-3-(2′-Amino-2-morpholin-4-yl-4′-trifluoromethyl-[4,5′]bipyrimidinyl-6-yl)-4-hydroxymethyl-5-methyl-oxazolidin-2-one], the pIC50 under setting [1] was 7.06.
